Reference: paper PMC5601486, “Identification of 4-phenylquinolin-2(1H)-one as a specific allosteric inhibitor of Akt” (Scientific Reports, 2017)

How the values were obtained:
Experiment in all cases: KINOMEscan
Settings in all cases: 50000 nM
[1] = tested on: SBK1
Method: KINOMEscan™ selectivity screen
(§1) The assay was perfor med at DiscoveRx Corporation according the methods published previously5. Briefly, Kinase-tagged T7 phage strains were grown in parallel in an E. coli host derived from the BL21 strain. E. coli were grown to log-phase and infected with T7 phage from a frozen stock and incubated with shaking at 32°C until lysis (90-150 minutes). The kinases were produced in HEK-293 cells and subsequently tagged with DNA for qPCR detection. Streptavidin-coated magnetic beads were treated with biotinylated small molecule ligands to generate affinity resins for kinase
(§2) inhibitor or DMSO control was performed in polypropylene 384-well plates for 1 hr at room temperature. After wash with PBS buffer containing 0.05% Tween 20, the beads were incubated in elution buffer (PBS containing 0.05 % Tween 20 and 0.5 μM non-biotinylated affinity ligand) for 30 minutes at room temperature. The kinase concentration in the eluates was measured by qPCR.

[2] = tested on: SYK
Method: KINOMEscan™ selectivity screen
as §1, §2

[3] = tested on: RSK2(Kin.Dom.2-C-terminal)
Method: KINOMEscan™ selectivity screen
as §1, §2

[4] = tested on: PIK3CA(E545A)
Method: KINOMEscan™ selectivity screen
(§3) Briefly, Kinase-tagged T7 phage strains were grown in parallel in an E. coli host derived from the BL21 strain. E. coli were grown to log-phase and infected with T7 phage from a frozen stock and incubated with shaking at 32°C until lysis (90-150 minutes). The kinases were produced in HEK-293 cells and subsequently tagged with DNA for qPCR detection. Streptavidin-coated magnetic beads were treated with biotinylated small molecule ligands to generate affinity resins for kinase
as §2

[5] = tested on: MAK
Method: KINOMEscan™ selectivity screen
as §1, §2

[6] = tested on: FLT3(K663Q)
Method: KINOMEscan™ selectivity screen
as §3, §2

[7] = tested on: ACVR1B
Method: KINOMEscan™ selectivity screen
as §1, §2

[8] = tested on: HUNK
Method: KINOMEscan™ selectivity screen
as §3, §2

[9] = tested on: BMX
Method: KINOMEscan™ selectivity screen
as §3, §2

[10] = tested on: GRK4
Method: KINOMEscan™ selectivity screen
(§4) The assay was perfor med at DiscoveRx Corporation according the methods published previously5. […] The kinases were produced in HEK-293 cells and subsequently tagged with DNA for qPCR detection. Streptavidin-coated magnetic beads were treated with biotinylated small molecule ligands to generate affinity resins for kinase
as §2

[11] = tested on: DAPK1
Method: KINOMEscan™ selectivity screen
as §1, §2

[12] = tested on: MRCKB
Method: as §3, §2

[13] = tested on: ERBB3
Method: KINOMEscan™ selectivity screen
as §1, §2

[14] = tested on: ACVR1
Method: KINOMEscan™ selectivity screen
as §1, §2

[15] = tested on: EPHB6
Method: KINOMEscan™ selectivity screen
as §1, §2

[16] = tested on: FYN
Method: KINOMEscan™ selectivity screen
as §1, §2

[17] = tested on: GRK1
Method: KINOMEscan™ selectivity screen
as §1, §2

[18] = tested on: MST1R
Method: KINOMEscan™ selectivity screen
as §1, §2

[19] = tested on: PRKCI
Method: KINOMEscan™ selectivity screen
as §1, §2

[20] = tested on: RSK2(Kin.Dom.1-N-terminal)
Method: KINOMEscan™ selectivity screen
as §1, §2

[21] = tested on: AKT1
Method: KINOMEscan™ selectivity screen
as §1, §2

[22] = tested on: AMPK-alpha2
Method: KINOMEscan™ selectivity screen
as §1, §2

[23] = tested on: DRAK1
Method: KINOMEscan™ selectivity screen
as §3, §2

[24] = tested on: ULK2
Method: KINOMEscan™ selectivity screen
as §1, §2

[25] = tested on: AAK1
Method: KINOMEscan™ selectivity screen
as §1, §2

[26] = tested on: PFTK1
Method: KINOMEscan™ selectivity screen
as §3, §2

[27] = tested on: EGFR(L861Q)
Method: KINOMEscan™ selectivity screen
as §3, §2

[28] = tested on: MKNK1
Method: KINOMEscan™ selectivity screen
as §3, §2

[29] = tested on: NEK1
Method: as §3, §2

[30] = tested on: ULK1
Method: KINOMEscan™ selectivity screen
as §1, §2

[31] = tested on: LKB1
Method: KINOMEscan™ selectivity screen
as §4, §2

[32] = tested on: CSF1R-autoinhibited
Method: KINOMEscan™ selectivity screen
as §1, §2

[33] = tested on: PHKG1
Method: KINOMEscan™ selectivity screen
as §3, §2

[34] = tested on: MAP3K15
Method: KINOMEscan™ selectivity screen
as §3, §2

[35] = tested on: TTK
Method: KINOMEscan™ selectivity screen
as §3, §2

[36] = tested on: TSSK3
Method: KINOMEscan™ selectivity screen
as §1, §2

[37] = tested on: EPHA7
Method: KINOMEscan™ selectivity screen
as §1, §2

[38] = tested on: TIE2
Method: KINOMEscan™ selectivity screen
as §1, §2

[39] = tested on: MYLK2
Method: KINOMEscan™ selectivity screen
as §1, §2

[40] = tested on: SRPK3
Method: KINOMEscan™ selectivity screen
as §1, §2

[41] = tested on: FLT3(D835Y)
Method: KINOMEscan™ selectivity screen
as §1, §2

[42] = tested on: PRKCE
Method: KINOMEscan™ selectivity screen
as §1, §2

[43] = tested on: PLK1
Method: KINOMEscan™ selectivity screen
as §1, §2

[44] = tested on: MKK7
Method: KINOMEscan™ selectivity screen
as §1, §2

[45] = tested on: MUSK
Method: KINOMEscan™ selectivity screen
The kinases were produced in HEK-293 cells and subsequently tagged with DNA for qPCR detection. Streptavidin-coated magnetic beads were treated with biotinylated small molecule ligands to generate affinity resins for kinase
as §2

[46] = tested on: AKT3
Method: KINOMEscan™ selectivity screen
as §1, §2

Oc1cc(-c2ccccc2)c2ccccc2n1 [G7, 4-phenylquinolin-2(1H)-one]
Percent Control [1]: 86% | Percent Control [2]: 95% | Percent Control [3]: 100% | Percent Control [4]: 100% | Percent Control [5]: 77% | Percent Control [6]: 29% | Percent Control [7]: 100% | Percent Control [8]: 70% | Percent Control [9]: 86% | Percent Control [10]: 96% | Percent Control [11]: 63% | Percent Control [12]: 84% | Percent Control [13]: 88% | Percent Control [14]: 100% | Percent Control [15]: 14% | Percent Control [16]: 89% | Percent Control [17]: 75% | Percent Control [18]: 100% | Percent Control [19]: 98% | Percent Control [20]: 17% | Percent Control [21]: 100% | Percent Control [22]: 97% | Percent Control [23]: 65% | Percent Control [24]: 76% | Percent Control [25]: 62% | Percent Control [26]: 94% | Percent Control [27]: 71% | Percent Control [28]: 69% | Percent Control [29]: 88% | Percent Control [30]: 74% | Percent Control [31]: 96% | Percent Control [32]: 16% | Percent Control [33]: 79% | Percent Control [34]: 71% | Percent Control [35]: 24% | Percent Control [36]: 95% | Percent Control [37]: 89% | Percent Control [38]: 100% | Percent Control [39]: 100% | Percent Control [40]: 100% | Percent Control [41]: 33% | Percent Control [42]: 100% | Percent Control [43]: 100% | Percent Control [44]: 100% | Percent Control [45]: 75% | Percent Control [46]: 100%
